Assay results taken from patent US10167262B2, “Herbicidal substituted 3-arylpyrazoles” (FMC CORPORATION, priority 2014, dated 2019).
Where “and” joins values, the source holds several entries; their conditions need not be identical. Identical values can stand only once.

How the values were obtained:
Assay in all cases: Test H postemergence mixture test of compound 39 with commercial herbicides, observed and Colby expected effect 0-100
Type in all cases: in vivo
Details in all cases: commercial herbicide alone, 14 days after treatment
corn (ZEAMD, Zea mays) = tested on: corn (ZEAMD, Zea mays)
Source text: (§1) This test evaluated the effect of mixtures of compound 39 with three commercial herbicides on five plant species. Seeds of plant species selected from corn (ZEAMD, Zea mays), soybean (GLXMA, Glycine max), palmer pigweed (AMAPA, Amaranthus palmeri), waterhemp (common waterhemp, AMATA, Amaranthus rudis), and Kochia (KCHSC, Kochia scoparia) were planted in pots containing Redi-Earth® planting medium (Scotts Company, 14111 Scottslawn Road, Marysville, Ohio 43041) comprising spaghnum peat moss, vermiculite, wetting agent and starter nutrients and treated with postemergence applications of test chemicals formulated in a non-phytotoxic solvent mixture which included a surfactant and applied using a volume of 299 L/ha. Each treatment was replicated four times. Treated plants and controls were maintained in a greenhouse using supplemental lighting to maintain a photoperiod of about 16 h; daytime and nighttime temperatures were about 24-30° C. and 19-21° C., respectively. Nutrients were applied using a balanced fertilizer applied through the watering system. At 14 days after treatment, all species were compared to controls and visually evaluated. Plant response ratings were calculated as the mean of the four replicates, are summarized in Tables H1 through H6, and are based on a scale of 0 to 100 where 0 is no effect and 100 is complete control. A dash (-) response means no test result.
(§2) Colby's Equation was used to determine the herbicidal effects expected from the mixtures. Colby's Equation (Colby, S. R. “Calculating Synergistic and Antagonistic Responses of Herbicide Combinations,” Weeds, 15(1), pp 20-22 (1967)) calculates the expected additive effect of herbicidal mixtures and for two active ingredients is of the form: Pa+b=Pa+Pb−(PaPb/100) • where • Pa+b is the percentage effect of the mixture expected from additive contribution of the individual components: • Pa is the observed percentage effect of the first active ingredient at the same use rate as in the mixture, and • Pb is the observed percentage effect of the second active ingredient at the same use rate as in the mixture. In the following Tables, rates are shown in grams of active ingredient per hectare (g a.i./ha); “Obsd.” is the observed effect. “Exp.” is the expected effect calculated from Colby's Equation.

[1] = tested on: waterhemp (common waterhemp, AMATA, Amaranthus rudis)
Source text: as §1, §2

[2] = tested on: Kochia (KCHSC, Kochia scoparia)
Source text: as §1, §2

[3] = tested on: soybean (GLXMA, Glycine max)
Source text: as §1, §2

[4] = tested on: palmer pigweed (AMAPA, Amaranthus palmeri)
Source text: as §1, §2

| Structure (SMILES) | ZEAMD Obsd. (observed effect) (corn (ZEAMD, Zea mays); 0.25 g a.i./ha) | ZEAMD Obsd. (observed effect) (corn (ZEAMD, Zea mays); 1 g a.i./ha) | AMATA Obsd. (observed effect) ([1]; 0.25 g a.i./ha) | AMATA Obsd. (observed effect) ([1]; 1 g a.i./ha) | KCHSC Obsd. (observed effect) ([2]; 0.25 g a.i./ha) | KCHSC Obsd. (observed effect) ([2]; 1 g a.i./ha) | GLXMA Obsd. (observed effect) ([3]; 0.25 g a.i./ha) | GLXMA Obsd. (observed effect) ([3]; 1 g a.i./ha) | AMAPA Obsd. (observed effect) ([4]; 0.25 g a.i./ha) | AMAPA Obsd. (observed effect) ([4]; 1 g a.i./ha) | ZEAMD Obsd. (observed effect) (corn (ZEAMD, Zea mays); 4 g a.i./ha) | AMATA Obsd. (observed effect) ([1]; 4 g a.i./ha) | KCHSC Obsd. (observed effect) ([2]; 4 g a.i./ha) | GLXMA Obsd. (observed effect) ([3]; 4 g a.i./ha) | AMAPA Obsd. (observed effect) ([4]; 4 g a.i./ha) |
| --- | --- | --- | --- | --- | --- | --- | --- | --- | --- | --- | --- | --- | --- | --- | --- |
| CCOC(=O)c1ccccc1S(=O)(=O)NC(=O)Nc1nc(Cl)cc(OC)n1 [Chlorimuron-ethyl, chlorimuron-ethyl] | 0 | 33 | 77 | 76 | 88 | 97 | 0 | 0 | 65 | 86 |  |  |  |  |  |
| COc1cc(OC)nc(NC(=O)NS(=O)(=O)c2ncccc2C(=O)N(C)C)n1 [Nicosulfuron, nicosulfuron] | 0 | 0 | 63 | 78 | 43 | 89 | 0 | 51 | 3 | 100 |  |  |  |  |  |
| CS(=O)(=O)c1ccc(C(=O)C2C(=O)CCCC2=O)c([N+](=O)[O-])c1 [Mesotrione, mesotrione] |  |  |  |  |  |  |  |  |  |  | 0 | 79 and 92 | 79 and 72 | 64 and 62 | 78 and 72 |
